The values below come from patent US20220348565A1, “PHARMACEUTICAL COMPOUNDS” (SENTINEL ONCOLOGY LIMITED, priority 2019, published 2022).

Test in all cases: DiscoverX KinomeScreen kinase selectivity competition binding assay
Test [1] has as its system panel of ninety-seven kinases. The method in brief: (§1)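 Site-directed competition binding: kinase (T7 phage-tagged or HEK-293-expressed, DNA-tagged) captured on immobilized biotinylated ligand beads, with compound at 3000 nM. Bound kinase eluted and quantified by qPCR. Reported as % Ctrl, with DMSO as 100% and control compound as 0%.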
The target of test [2] is T1, panel of ninety-seven kinases (Homo sapiens, UniProt Q00526).
T1 construct: purchased DiscoverX; host or cells: T7 phage in E. coli (BL21-derived) for most kinases; HEK-293 for the rest
The conditions noted are these: CDK3; read-out: % Ctrl @ 3 μM. Put shortly:
as §1

In test [3] the target is T2, panel of ninety-seven kinases (Homo sapiens, UniProt Q9BVS4).
T2 construct: purchased DiscoverX; host or cells: T7 phage in E. coli (BL21-derived) for most kinases; HEK-293 for the rest
The note with it: RIOK2; read-out: % Ctrl @ 3 μM. Put shortly: as §1

Test [4] has as its target T3, panel of ninety-seven kinases (Homo sapiens, UniProt Q02763).
T3 construct: purchased DiscoverX; host or cells: T7 phage in E. coli (BL21-derived) for most kinases; HEK-293 for the rest
The conditions noted are these: TEK; read-out: % Ctrl @ 3 μM. The method in brief:
as §1

In test [5] the target is T4, panel of ninety-seven kinases (Homo sapiens, UniProt O14965).
T4 construct: purchased DiscoverX; host or cells: T7 phage in E. coli (BL21-derived) for most kinases; HEK-293 for the rest
The conditions noted are these: AURKA; read-out: % Ctrl @ 3 μM. The method in brief:
as §1

Test [6] concerns the target T5, panel of ninety-seven kinases (Homo sapiens, UniProt P45984).
T5 construct: purchased DiscoverX; host or cells: T7 phage in E. coli (BL21-derived) for most kinases; HEK-293 for the rest
The note with it: MAPK9; read-out: % Ctrl @ 3 μM. Put shortly: as §1

In test [7] the target is T6, panel of ninety-seven kinases (Homo sapiens, UniProt P07333).
T6 construct: purchased DiscoverX; host or cells: T7 phage in E. coli (BL21-derived) for most kinases; HEK-293 for the rest
The note with it: CSF1R; read-out: % Ctrl @ 3 μM. The method in brief:
as §1

Test [8] addresses T7, panel of ninety-seven kinases (Homo sapiens, UniProt P31749).
T7 construct: purchased DiscoverX; host or cells: T7 phage in E. coli (BL21-derived) for most kinases; HEK-293 for the rest
The conditions noted are these: AKT1; read-out: % Ctrl @ 3 μM. Put shortly: as §1

For test [9], the target named is T8, panel of ninety-seven kinases (Homo sapiens, UniProt P09619).
T8 construct: purchased DiscoverX; host or cells: T7 phage in E. coli (BL21-derived) for most kinases; HEK-293 for the rest
The note with it: PDGFRB; read-out: % Ctrl @ 3 μM. The method in brief:
as §1

Test [10] has as its target T9, panel of ninety-seven kinases (Homo sapiens, UniProt P29317).
T9 construct: purchased DiscoverX; host or cells: T7 phage in E. coli (BL21-derived) for most kinases; HEK-293 for the rest
The note with it: EPHA2; read-out: % Ctrl @ 3 μM. The method in brief:
as §1

Test [11] addresses T10, panel of ninety-seven kinases (Homo sapiens, UniProt P51812).
T10 construct: purchased DiscoverX; host or cells: T7 phage in E. coli (BL21-derived) for most kinases; HEK-293 for the rest
The conditions noted are these: RPS6KA3; read-out: % Ctrl @ 3 μM. Put shortly: as §1

Test [12] concerns the target T11, panel of ninety-seven kinases (Homo sapiens, UniProt Q06187).
T11 construct: purchased DiscoverX; host or cells: T7 phage in E. coli (BL21-derived) for most kinases; HEK-293 for the rest
The conditions noted are these: BTK; read-out: % Ctrl @ 3 μM. Put shortly: as §1

The target in test [13] is T12, panel of ninety-seven kinases (Homo sapiens, UniProt P12931).
T12 construct: purchased DiscoverX; host or cells: T7 phage in E. coli (BL21-derived) for most kinases; HEK-293 for the rest
The conditions noted are these: SRC; read-out: % Ctrl @ 3 μM. The method in brief:
as §1

The target in test [14] is T13, panel of ninety-seven kinases (Homo sapiens, UniProt Q86UX6).
T13 construct: purchased DiscoverX; host or cells: T7 phage in E. coli (BL21-derived) for most kinases; HEK-293 for the rest
The note with it: STK32C; read-out: % Ctrl @ 3 μM. Put shortly:
as §1

The target of test [15] is T14, panel of ninety-seven kinases (Homo sapiens, UniProt P36897).
T14 construct: purchased DiscoverX; host or cells: T7 phage in E. coli (BL21-derived) for most kinases; HEK-293 for the rest
The conditions noted are these: TGFBR1; read-out: % Ctrl @ 3 μM. Put shortly:
as §1

For test [16], the target named is T15, panel of ninety-seven kinases (Homo sapiens, UniProt Q13873).
T15 construct: purchased DiscoverX; host or cells: T7 phage in E. coli (BL21-derived) for most kinases; HEK-293 for the rest
The note with it: BMPR2; read-out: % Ctrl @ 3 μM. Put shortly: as §1

Test [17] has as its target T16, panel of ninety-seven kinases (Homo sapiens, UniProt O00750).
T16 construct: purchased DiscoverX; host or cells: T7 phage in E. coli (BL21-derived) for most kinases; HEK-293 for the rest
The conditions noted are these: PIK3C2B; read-out: % Ctrl @ 3 μM. The method in brief:
as §1

For test [18], the target named is T17, panel of ninety-seven kinases (Homo sapiens, UniProt P49137).
T17 construct: purchased DiscoverX; host or cells: T7 phage in E. coli (BL21-derived) for most kinases; HEK-293 for the rest
The note with it: MAPKAPK2; read-out: % Ctrl @ 3 μM. Put shortly:
as §1

In test [19] the target is T18, panel of ninety-seven kinases (Homo sapiens, UniProt P52333).
T18 construct: purchased DiscoverX; host or cells: T7 phage in E. coli (BL21-derived) for most kinases; HEK-293 for the rest
The note with it: JAK3; read-out: % Ctrl @ 3 μM. Put shortly:
as §1

Test [20] has as its target T19, panel of ninety-seven kinases (Homo sapiens, UniProt P27361).
T19 construct: purchased DiscoverX; host or cells: T7 phage in E. coli (BL21-derived) for most kinases; HEK-293 for the rest
The conditions noted are these: MAPK3; read-out: % Ctrl @ 3 μM. Put shortly:
as §1

Test [21] deals with T20, panel of ninety-seven kinases (Homo sapiens, UniProt Q86V86).
T20 construct: purchased DiscoverX; host or cells: T7 phage in E. coli (BL21-derived) for most kinases; HEK-293 for the rest
The note with it: PIM3; read-out: % Ctrl @ 3 μM. The method in brief: as §1

T8 sequence (P09619 33-1106): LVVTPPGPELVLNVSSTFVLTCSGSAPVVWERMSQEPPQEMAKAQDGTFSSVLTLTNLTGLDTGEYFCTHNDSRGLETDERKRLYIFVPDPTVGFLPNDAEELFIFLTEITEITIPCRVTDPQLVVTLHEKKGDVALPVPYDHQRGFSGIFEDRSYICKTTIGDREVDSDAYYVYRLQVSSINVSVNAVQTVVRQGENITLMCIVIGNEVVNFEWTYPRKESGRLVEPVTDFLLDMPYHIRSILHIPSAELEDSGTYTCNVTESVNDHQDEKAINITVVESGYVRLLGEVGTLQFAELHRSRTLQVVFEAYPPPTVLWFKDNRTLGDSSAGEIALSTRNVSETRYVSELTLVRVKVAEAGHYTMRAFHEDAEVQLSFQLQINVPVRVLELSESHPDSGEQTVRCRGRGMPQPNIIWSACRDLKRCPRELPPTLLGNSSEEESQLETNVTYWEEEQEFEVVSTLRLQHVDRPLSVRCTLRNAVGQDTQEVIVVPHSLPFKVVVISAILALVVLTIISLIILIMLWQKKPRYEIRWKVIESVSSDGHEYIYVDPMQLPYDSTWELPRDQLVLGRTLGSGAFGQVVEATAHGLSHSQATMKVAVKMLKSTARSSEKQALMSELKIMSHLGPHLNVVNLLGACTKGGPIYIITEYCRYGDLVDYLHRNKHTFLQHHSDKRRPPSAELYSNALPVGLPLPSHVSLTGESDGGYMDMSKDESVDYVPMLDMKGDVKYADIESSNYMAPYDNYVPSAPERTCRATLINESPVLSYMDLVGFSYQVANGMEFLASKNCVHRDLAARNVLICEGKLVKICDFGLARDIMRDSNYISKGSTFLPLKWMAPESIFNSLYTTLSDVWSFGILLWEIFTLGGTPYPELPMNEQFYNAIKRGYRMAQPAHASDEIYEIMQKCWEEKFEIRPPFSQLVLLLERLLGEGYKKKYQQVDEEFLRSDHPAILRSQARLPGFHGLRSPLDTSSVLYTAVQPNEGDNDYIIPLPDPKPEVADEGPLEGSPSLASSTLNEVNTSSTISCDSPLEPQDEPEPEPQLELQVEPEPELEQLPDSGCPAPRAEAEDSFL
T14 sequence (P36897 34-503): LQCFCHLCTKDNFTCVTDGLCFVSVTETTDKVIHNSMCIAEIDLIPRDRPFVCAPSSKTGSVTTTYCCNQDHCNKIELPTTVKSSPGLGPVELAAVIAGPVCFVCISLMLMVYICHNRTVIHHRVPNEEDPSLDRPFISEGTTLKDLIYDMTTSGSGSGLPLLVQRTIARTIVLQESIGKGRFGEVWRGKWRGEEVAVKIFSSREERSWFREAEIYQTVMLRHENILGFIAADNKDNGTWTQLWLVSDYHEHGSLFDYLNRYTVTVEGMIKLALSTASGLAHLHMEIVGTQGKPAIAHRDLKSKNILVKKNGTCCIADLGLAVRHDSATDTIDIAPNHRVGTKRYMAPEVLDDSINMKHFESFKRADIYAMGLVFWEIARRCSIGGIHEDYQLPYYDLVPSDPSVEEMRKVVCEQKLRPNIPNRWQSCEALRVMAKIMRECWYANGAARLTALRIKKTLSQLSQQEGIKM
T2 sequence (Q9BVS4 whole entry): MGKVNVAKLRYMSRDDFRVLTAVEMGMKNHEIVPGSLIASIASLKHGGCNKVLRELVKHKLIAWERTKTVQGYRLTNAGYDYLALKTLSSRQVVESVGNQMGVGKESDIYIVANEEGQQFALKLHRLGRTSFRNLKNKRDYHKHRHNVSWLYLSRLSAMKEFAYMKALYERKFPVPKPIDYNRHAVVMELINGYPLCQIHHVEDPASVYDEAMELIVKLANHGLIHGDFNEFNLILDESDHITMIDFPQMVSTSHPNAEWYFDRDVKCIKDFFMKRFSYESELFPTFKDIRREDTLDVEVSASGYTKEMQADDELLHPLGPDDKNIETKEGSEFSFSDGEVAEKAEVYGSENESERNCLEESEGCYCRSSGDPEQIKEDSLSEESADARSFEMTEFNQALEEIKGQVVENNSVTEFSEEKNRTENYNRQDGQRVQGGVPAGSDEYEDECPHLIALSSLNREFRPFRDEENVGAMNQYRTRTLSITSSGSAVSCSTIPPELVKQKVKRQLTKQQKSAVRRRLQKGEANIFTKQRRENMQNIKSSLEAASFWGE
T7 sequence (P31749 whole entry): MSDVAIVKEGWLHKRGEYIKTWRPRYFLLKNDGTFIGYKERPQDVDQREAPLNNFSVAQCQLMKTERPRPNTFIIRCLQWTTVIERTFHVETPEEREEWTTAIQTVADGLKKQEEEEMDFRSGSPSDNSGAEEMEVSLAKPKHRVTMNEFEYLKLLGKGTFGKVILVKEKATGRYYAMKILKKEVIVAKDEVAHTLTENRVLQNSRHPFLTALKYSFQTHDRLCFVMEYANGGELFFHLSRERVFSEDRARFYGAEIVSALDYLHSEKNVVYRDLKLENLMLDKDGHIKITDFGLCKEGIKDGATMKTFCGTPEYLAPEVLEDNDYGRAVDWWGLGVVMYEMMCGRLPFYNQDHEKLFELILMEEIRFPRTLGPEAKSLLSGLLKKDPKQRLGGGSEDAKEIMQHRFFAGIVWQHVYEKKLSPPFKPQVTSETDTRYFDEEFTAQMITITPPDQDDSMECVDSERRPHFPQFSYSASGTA
T10 sequence (P51812 whole entry): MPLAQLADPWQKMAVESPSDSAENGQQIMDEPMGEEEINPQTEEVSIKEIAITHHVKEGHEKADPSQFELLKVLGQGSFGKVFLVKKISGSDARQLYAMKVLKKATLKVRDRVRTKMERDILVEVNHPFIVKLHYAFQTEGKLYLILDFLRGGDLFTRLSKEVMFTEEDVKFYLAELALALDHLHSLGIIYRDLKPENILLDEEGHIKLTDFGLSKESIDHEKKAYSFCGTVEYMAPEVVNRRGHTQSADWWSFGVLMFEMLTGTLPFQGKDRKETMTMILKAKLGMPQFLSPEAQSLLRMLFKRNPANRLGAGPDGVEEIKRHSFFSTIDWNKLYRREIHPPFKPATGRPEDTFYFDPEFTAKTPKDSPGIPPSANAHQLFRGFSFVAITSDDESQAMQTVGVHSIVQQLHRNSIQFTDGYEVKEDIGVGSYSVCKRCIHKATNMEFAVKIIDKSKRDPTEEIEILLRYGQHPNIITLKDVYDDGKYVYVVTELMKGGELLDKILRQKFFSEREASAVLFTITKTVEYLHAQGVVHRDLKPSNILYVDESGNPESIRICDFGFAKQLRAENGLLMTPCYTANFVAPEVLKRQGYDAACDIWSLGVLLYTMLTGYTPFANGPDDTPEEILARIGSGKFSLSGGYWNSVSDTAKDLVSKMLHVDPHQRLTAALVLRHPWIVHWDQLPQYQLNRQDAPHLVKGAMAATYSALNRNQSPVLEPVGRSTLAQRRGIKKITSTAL
T11 sequence (Q06187 whole entry): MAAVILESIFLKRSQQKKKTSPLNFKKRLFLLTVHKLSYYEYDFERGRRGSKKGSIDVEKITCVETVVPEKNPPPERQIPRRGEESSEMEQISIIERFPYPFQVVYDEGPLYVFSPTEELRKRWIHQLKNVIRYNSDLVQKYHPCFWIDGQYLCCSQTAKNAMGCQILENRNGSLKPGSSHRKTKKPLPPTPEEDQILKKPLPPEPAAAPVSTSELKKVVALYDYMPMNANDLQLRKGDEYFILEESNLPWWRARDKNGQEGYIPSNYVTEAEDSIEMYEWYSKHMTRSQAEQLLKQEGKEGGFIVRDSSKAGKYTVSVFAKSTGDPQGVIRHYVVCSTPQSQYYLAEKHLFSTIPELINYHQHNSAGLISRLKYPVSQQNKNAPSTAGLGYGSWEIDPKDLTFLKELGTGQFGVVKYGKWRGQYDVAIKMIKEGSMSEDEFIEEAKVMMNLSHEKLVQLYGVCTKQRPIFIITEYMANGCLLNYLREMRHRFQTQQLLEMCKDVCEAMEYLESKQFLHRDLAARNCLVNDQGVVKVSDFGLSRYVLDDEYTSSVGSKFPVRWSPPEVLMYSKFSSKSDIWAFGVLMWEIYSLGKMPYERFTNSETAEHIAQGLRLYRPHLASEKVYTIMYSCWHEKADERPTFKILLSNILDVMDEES
T12 sequence (P12931 whole entry): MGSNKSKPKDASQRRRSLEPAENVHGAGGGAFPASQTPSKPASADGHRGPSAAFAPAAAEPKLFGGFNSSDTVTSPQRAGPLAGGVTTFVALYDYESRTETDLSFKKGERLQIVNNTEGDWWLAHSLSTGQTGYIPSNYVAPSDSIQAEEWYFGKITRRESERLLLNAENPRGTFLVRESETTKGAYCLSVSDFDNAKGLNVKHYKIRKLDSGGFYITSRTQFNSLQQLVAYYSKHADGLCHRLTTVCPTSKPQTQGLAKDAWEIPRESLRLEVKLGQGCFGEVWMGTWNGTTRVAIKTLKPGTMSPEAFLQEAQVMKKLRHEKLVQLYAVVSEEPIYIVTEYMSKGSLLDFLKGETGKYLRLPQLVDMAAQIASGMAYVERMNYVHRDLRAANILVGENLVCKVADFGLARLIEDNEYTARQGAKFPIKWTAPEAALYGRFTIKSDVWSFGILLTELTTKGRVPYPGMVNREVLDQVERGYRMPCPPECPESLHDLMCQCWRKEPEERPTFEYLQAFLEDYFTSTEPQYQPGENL

Turning to `CN(C)CCNC(=O)c1ccc(-c2ccc(-c3ccc(Cl)cc3)n2-c2ccccc2C(F)(F)F)cc1` (single isomer, unassigned) [Atropisomer A-2, 4-[5-(4-chlorophenyl)-1-[2-(trifluoromethyl)phenyl]pyrrol-2-yl]-N-[2-(dimethylamino)ethyl]benzamide], the “% Ctrl @ 3 μM” value in test [1] (EGFR (variants not told apart)) amounted to 100%; in [1] (KIT (three lines, variants not told apart)), 100%. In addition, the “binding activity against panel kinases (in words)” value in test [1] (ninety-seven kinases, 3 μM) is reported as “poor or non-existent binding activity”. The percent of control kinase binding to immobilized ligand at 3 µM in test [2] was found to be 100%; in test [3] it was 100%; in test [4], 99%; in [5], 98%; in [6] it was 80%; in [7], 100%. Moreover, the percent of control kinase binding to immobilized ligand at 3 µM in test [8] stood at 98%; in [9], 100%; in [10] it was 100%; in test [11], 100%; in [12] it was 94%; in test [13], 100%. Besides, the percent of control kinase binding to immobilized ligand at 3 µM in [14] was found to be 100%; in test [15], 95%; in test [16], 82%; in test [17], 100%; in [18], 75%; in [19], 100%. Further, the results for the percent of control kinase binding to immobilized ligand at 3 µM in test [20] and in test [21] were 99% and 98%, respectively.
